# Laboratory results from patent US9278922B2 (ABBVIE INC., priority 2009, dated 2016).
# pEC50: −log10 of the molar value.
# Tested on: HCV 1b-Con-1 replicon
# Assay: HCV 1b-Con-1 replicon assay (luciferase reporter gene, HuH-7 cells)
# Type: cell-based, Hepatitis C virus (HCV) genotype 1b-Con1
# Conditions: Hepatitis C virus, Huh-7, luciferase reporter gene activity in the replicon, in the presence of 5% FBS
row,SMILES,pEC50
1,"CC[C@@H](C)[C@H](NC(=O)OC)C(=O)N1CCC[C@H]1C(=O)Nc1ccc(CN(Cc2ccc(NC(=O)[C@@H]3CCCN3C(=O)[C@@H](NC(=O)OC)[C@H](C)CC)cc2)c2ccccc2)cc1 [Example 50, dimethyl[(phenylimino)bis{methanediylbenzene-4,1-diylcarbamoyl(2S)pyrrolidine-2,1-diyl[(2S,3R)-3-methyl-1-oxopentane-1,2-diyl]}]biscarbamate]",> 9.00
2,"O=C(Nc1ccc(CN(Cc2ccc(NC(=O)[C@@H]3CCCN3C(=O)[C@@H](c3ccccc3)N3CCOCC3)cc2)c2ccccc2)cc1)[C@@H]1CCCN1C(=O)[C@@H](c1ccccc1)N1CCOCC1 [Example 57, (2S,2′S)-N,N′-[(phenylimino)bis(methanediylbenzene-4,1-diyl)]bis{1-[(2R)-2-morpholin-4-yl-2-phenylacetyl]pyrrolidine-2-carboxamide}]",> 9.00
3,CC[C@H](C)[C@H](NC(=O)OC)C(=O)N1CCC[C@H]1C(=O)Nc1ccc(CN(Cc2ccc(NC(=O)[C@@H]3CCCN3C(=O)[C@@H](NC(=O)OC)[C@@H](C)CC)cc2)c2ccccc2)cc1 [Example 9],> 9.00
4,"COC(=O)N[C@H](C(=O)N1C(C)CC[C@H]1C(=O)Nc1ccc(CN(Cc2ccc(NC(=O)[C@@H]3CCC(C)N3C(=O)[C@H](NC(=O)OC)C(C)(C)C)cc2)c2ccc(F)cc2)cc1)C(C)(C)C (stereo partly drawn) [Example 142, methyl [(1R)-1-{[(2S)-2-{[4-({(4-fluorophenyl)[4-({[(2S)-1-{(2S)-2-[(methoxycarbonyl)amino]-3,3-dimethylbutanoyl}-5-methylpyrrolidin-2-yl]carbonyl}amino)benzyl]amino}methyl)phenyl]carbamoyl}-5-methylpyrrolidin-1-yl]carbonyl}-2,2-dimethylpropyl]carbamate]",> 9.00
5,"COC(=O)N[C@H](C(=O)N1CCC[C@H]1C(=O)Nc1ccc(CN(Cc2ccc(NC(=O)[C@@H]3CCCN3C(=O)[C@@H](NC(=O)OC)C(C)(C)C)cc2)C(C)C)cc1)C(C)(C)C [Example 30, dimethyl ([(1-methylethyl)imino]bis{methanediylbenzene-4,1-diylcarbamoyl(2S)pyrrolidine-2,1-diyl[(2S)-3,3-dimethyl-1-oxobutane-1,2-diyl]})biscarbamate]",6.60 to 7.00
6,"CC[C@H](C)[C@H](NC(=O)OC(C)(C)C)C(=O)N1CCC[C@H]1C(=O)Nc1ccc(CN(Cc2ccc(NC(=O)[C@@H]3CCCN3C(=O)[C@@H](NC(=O)OC(C)(C)C)[C@@H](C)CC)cc2)c2ccccc2)cc1 [Example 41, di-tert-butyl[(phenylimino)bis{methanediylbenzene-4,1-diylcarbamoyl(2S)pyrrolidine-2,1-diyl[(2S,3S)-3-methyl-1-oxopentane-1,2-diyl]}]biscarbamate]",7.00 to 8.00
7,"O=C(Nc1ccc(CN(Cc2ccc(NC(=O)[C@@H]3CCCN3C(=O)C(c3ccccc3)N3CCCC3=O)cc2)c2ccc(F)cc2)cc1)[C@@H]1CCCN1C(=O)C(c1ccccc1)N1CCCC1=O (single isomer, unassigned) [Example 129, (2S ,2′S)-N,N′-{[(4-fluorophenyl)imino]bis(methanediylbenzene-4,1-diyl)}bis{1-[(2-oxopyrrolidin-1-yl)(phenyl)acetyl]pyrrolidine-2-carboxamide}]",8.00 to 9.00
8,"COC(=O)N[C@H](C(=O)N1CCC[C@H]1C(=O)Nc1ccc(CN(Cc2ccc(NC(=O)[C@@H]3CCCN3C(=O)[C@@H](NC(=O)OC)[C@H]3CCOC3)cc2)c2ccccc2)cc1)[C@H]1CCOC1 [Example 39, dimethyl {(phenylimino)bis[methanediylbenzene-4,1-diylcarbamoyl(2S)pyrrolidine-2,1-diyl{(1S)-2-oxo-1-[(3R)-tetrahydrofuran-3-yl]ethane-2,1-diyl}]}biscarbamate]",> 9.00
9,"O=C(Nc1ccc(CN(Cc2ccc(NC(=O)[C@@H]3CCCN3C(=O)[C@H](O)c3ccccc3)cc2)c2ccc(F)cc2)cc1)[C@@H]1CCCN1C(=O)[C@H](O)c1ccccc1 [Example 110, (2S ,2′S)-N,N′-{[(4-fluorophenyl)imino]bis(methanediylbenzene-4,1-diyl)}bis{1-[(2R)-2-hydroxy-2-phenylacetyl]pyrrolidine-2-carboxamide}]",> 9.00
10,"COC(=O)N[C@H](C(=O)N1CCC[C@H]1C(=O)Nc1ccc(CN(Cc2ccc(NC(=O)[C@@H]3CCCN3C(=O)[C@@H](c3ccccc3)N3CCCC3)cc2)c2ccccc2)cc1)C(C)(C)C [Example 56, N-(methoxycarbonyl)-3-methyl-L-valyl-N-[4-({phenyl[4-({1-[(2R)-2-phenyl-2-pyrrolidin-1-ylacetyl]-L-prolyl}amino)benzyl]amino}methyl)phenyl]-L-prolinamide]",> 9.00
11,"CCN(CC)[C@@H](C(=O)N1CCC[C@H]1C(=O)Nc1ccc(CN(Cc2ccc(NC(=O)[C@@H]3CCCN3C(=O)[C@@H](c3ccccc3)N(CC)CC)cc2)c2ccccc2)cc1)c1ccccc1 [Example 21, (R,2S,2′S)-N,N′-(4,4′-(phenylazanediyl)bis(methylene)bis(4,1-phenylene))bis(1-((R)-2-(diethylamino)-2-phenylacetyl)pyrrolidine-2-carboxamide)]",> 9.00
12,"COC(=O)N[C@H](C(=O)N1CCC[C@H]1C(=O)Nc1ccc(CN(Cc2ccc(NC(=O)[C@@H]3CCCN3C(=O)[C@@H](NC(=O)OC)[C@H](C)O)cc2)c2ccccc2)cc1)[C@H](C)O [Example 49, dimethyl [(phenylimino)bis{methanediylbenzene-4,1-diylcarbamoyl(2S)pyrrolidine-2,1-diyl[(2S,3S)-3-hydroxy-1-oxobutane-1,2-diyl]}]biscarbamate]",8.00 to 9.00
13,"CC(=O)N[C@@H](C(=O)N1CCC[C@H]1C(=O)Nc1ccc(CN(Cc2ccc(NC(=O)[C@@H]3CCCN3C(=O)[C@H](NC(C)=O)c3ccccc3)cc2)c2ccccc2)cc1)c1ccccc1 [Example 43, (2S,2′S)-N,N′-[(phenylimino)bis(methanediylbenzene-4,1-diyl)]bis{1-[(2R)-2-(acetylamino)-2-phenylacetyl]pyrrolidine-2-carboxamide}]",> 9.00
14,"O=C(Nc1ccc(CN(Cc2ccc(NC(=O)[C@@H]3CCCN3C(=O)[C@@H](c3ccccc3)N3CCCC3)cc2)c2ccccc2)cc1)[C@@H]1CCCN1C(=O)[C@@H](c1ccccc1)N1CCCC1 [Example 55, (2S,2′S)-N,N′-[(phenylimino)bis(methanediylbenzene-4,1-diyl)]bis{1-[(2R)-2-phenyl-2-pyrrolidin-1-ylacetyl]pyrrolidine-2-carboxamide}]",> 9.00
15,"COC(=O)N[C@@H](C)C(=O)N1CCC[C@H]1C(=O)Nc1ccc(CN(Cc2ccc(NC(=O)[C@@H]3CCCN3C(=O)[C@H](C)NC(=O)OC)cc2)c2ccccc2)cc1 [Example 8, Dimethyl (2S,2′S)-1,1′-((2S,2′S)-2,2′-(4,4′-(phenylazanediyl)bis(methylene)bis(4,1-phenylene)bis(azanediyl))bis(oxomethylene)bis(pyrrolidine-2,1-diyl))bis(1-oxopropane-2,1-diyl)dicarbamate]",8.00 to 9.00
16,"COCC(=O)N[C@H](C(=O)N1CCC[C@H]1C(=O)Nc1ccc(CN(Cc2ccc(NC(=O)[C@@H]3CCCN3C(=O)[C@@H](NC(=O)COC)C(C)(C)C)cc2)c2ccccc2)cc1)C(C)(C)C [Example 40, (2S,2′S)-N,N′-[(phenylimino)bis(methanediylbenzene-4,1-diyl)]bis(1-{(2S)-2-[(methoxyacetyl)amino]-3,3-dimethylbutanoyl}pyrrolidine-2-carboxamide)]",7.00 to 8.00
17,"CC(=O)O[C@H](C(=O)N1CCC[C@H]1C(=O)Nc1ccc(CN(Cc2ccc(NC(=O)[C@@H]3CCCN3C(=O)[C@H](OC(C)=O)c3ccccc3)cc2)c2ccc(F)cc2)cc1)c1ccccc1 [Example 113, [(4-fluorophenyl)imino]bis[methanediylbenzene-4,1-diylcarbamoyl(2S)pyrrolidine-2,1-diyl(1R)-2-oxo-1-phenylethane-2,1-diyl]diacetate]",> 9.00
18,"COC(=O)N[C@H](C(=O)N1CCC[C@H]1C(=O)Nc1ccc(CN(Cc2ccc(NC(=O)[C@@H]3CCCN3C(=O)[C@@H](NC(=O)OC)[C@@H](C)O)cc2)[C@@H]2CCOC2)cc1)[C@@H](C)O [Example 97, dimethyl ([(3R)-tetrahydrofuran-3-ylimino]bis{methanediylbenzene-4,1-diylcarbamoyl(2S)pyrrolidine-2,1-diyl[(2S,3R)-3-hydroxy-1-oxobutane-1,2-diyl]})biscarbamate]",6.60 to 7.00
19,"COC(=O)N[C@@H](CC(C)C)C(=O)N1CCC[C@H]1C(=O)Nc1ccc(CN(Cc2ccc(NC(=O)[C@@H]3CCCN3C(=O)[C@H](CC(C)C)NC(=O)OC)cc2)c2ccccc2)cc1 [Example 45, dimethyl [(phenylimino)bis{methanediylbenzene-4,1-diylcarbamoyl(2S)pyrrolidine-2,1-diyl[(2S)-4-methyl-1-oxopentane-1,2-diyl]}]biscarbamate]",8.00 to 9.00
20,"COC(=O)N[C@H](C(=O)N1CCC[C@H]1C(=O)Nc1ccc(CN(Cc2ccc(NC(=O)[C@@H]3CCCN3C(=O)[C@@H](NC(=O)OC)C3CCCCC3)cc2)c2ccc(F)cc2)cc1)C1CCCCC1 [Example 104, dimethyl ([(4-fluorophenyl)imino]bis{methanediylbenzene-4,1-diylcarbamoyl(25)pyrrolidine-2,1-diyl[(1S)-1-cyclohexyl-2-oxoethane-2,1-diyl]})biscarbamate]",> 9.00
21,"O=C(Nc1ccc(CN(Cc2ccc(NC(=O)[C@@H]3COCN3C(=O)OCc3ccccc3)cc2)c2ccc(F)cc2)cc1)[C@@H]1COCN1C(=O)OCc1ccccc1 [Example 126, dibenzyl (4S,4′S)-4,4′-{[(4-fluorophenyl)imino]bis(methanediylbenzene-4,1-diylcarbamoyl)}bis(1,3-oxazolidine-3-carboxylate)]",7.00 to 8.00
22,"O=C(Nc1ccc(CN(Cc2ccc(NC(=O)[C@@H]3C[C@H](O)CN3C(=O)[C@@H](c3ccccc3)N3CCCCC3)cc2)c2ccc(F)cc2)cc1)[C@@H]1C[C@H](O)CN1C(=O)[C@@H](c1ccccc1)N1CCCCC1 [Example 127, (2S,4S,2′S,4′S)-N,N′-{[(4-fluorophenyl)imino]bis(methanediylbenzene-4,1-diyl)}bis{4-hydroxy-1-[(2R)-2-phenyl-2-piperidin-1-ylacetyl]pyrrolidine-2-carboxamide}]",> 9.00
